Laboratory results published in patent US9732322B2, “Compositions for mesoderm derived ISL1+ multipotent cells (IMPs), epicardial progenitor cells (EPCs) and multipotent C56C cells (C56Cs) and methods of producing and using same” (UNIVERSITY OF GEORGIA RESEARCH FOUNDATION, INC., priority 2008, dated 2017).

What was measured:
[1] = system: Isl1+ IMP (Spl-m) cells; assay: Stage 2 differentiation of Isl1+ IMPs/Spl-m to Wt1+ epicardial progenitor (PE-like) cells; type: cell-based, human; settings: for Erk activation in Isl1+ Spl-m: immunoblot, phospho-Erk1,2
Method: hESC/hFib2-iPS4 hiPSCs grown in StemPro defined media/defined media were differentiated into IMPs (as described above and elsewhere). At day 4, IMP cell stage, the defined media was supplemented with BMP4 (50 ng/ml, range about 2-100 ng/ml, R&D Systems), Wnt3a (25 ng/ml, range about 1-100+ng/ml, R&D Systems) and all-trans retinoic acid (4 μM, range about 0.25-25 μM Sigma), media changed every 2 (1-4 days) days, for about 10-16 days (about 7-25 days) (FIG. 39). The expression of Wt-1, Tbx18, Raldh2 and Tcf21 (epicardin) were confirmed by Q-PCR (FIGS. 40, 42) and Wt-1 by immunofluorescence (FIG. 41). This method typically gives cultures that are >80% positive for Wt1.
(§1) WA01, WA07, WA09, BG01 and BG02 hESCs and Fib-iPS4 hIPSCs^28 were adapted from mouse embryo fibroblast feeder-based culture conditions to feeder-free growth in chemically defined media (CDM) using single cell suspensions^50. Briefly, CDM is composed of DMEM/F12 (Mediatech), 2% probumin (Bovine Serum Albumin fraction V) biotech grade (Millipore), 1× nonessential amino acids, 50 U/mL penicillin, 50 μg/mL streptomycin, 1× trace elements A, B, C (all from Mediatech), 10 μg/mL transferrin, 0.1 mM […] (Gibco), 50 μg/mL ascorbic acid (Sigma), 8 ng/mL bFGF (Invitrogen), 200 ng/mL LR-IGF (Sigma), 10 ng/mL Activin A (R and D Systems) and 10 ng/mL […] (Peprotech). Cells were passaged every 4-5 d using Accutase (Innovative Cell Technologies) to form a single cell suspension and then plated onto plates coated with 1:200 Geltrex (Invitrogen) at a cell density of 7.5×10^4 cells/cm^2 at 37° C. in 5% CO2. Media was changed every 24 h. To differentiate hESC in Stage 1 (FIG. 62), cells were plated at a density of 5.1×10^4 cells/cm^2 into CDM containing 25 ng/mL rmWnt3a and 100 ng/mL rhBMP4 (R&D Systems). Cells were cultured at 37° C. in 5% CO2 and media changed every 24 h for 4-6 d. CDM for Stage 2 of differentiation was supplemented with 25 ng/mL rmWnt3a, 50 ng/mL rhBMP4 with either 100 ng/ml Fgf2 or 4 μM all-trans retinoic acid (Sigma), changing media every 48 h for 10-16 d. For Stage 3 differentiation, Stage 2 cells were passaged at day 16 into CDM without Activin A, supplemented with 10 ng/mL rhVEGF-A165 (R&D Systems). All bright field images were acquired on a Leica DMIL microscope.
Progenitor cells of the coronary vasculature are believed to reside in the PE and after forming the epicardium, seed the myocardium for future vessel formation. Many unanswered questions remain as to the characteristics of these progenitor cells but clearly, a better understanding of PE development will provide significant insight into this question. Lineage tracing studies in vivo indicate that PE and epicardium forms from an Isl1^+ Nkx2.5^+ progenitor^6, 18, 29. […]

[2] = target: T1, CXCR4 receptor (Homo sapiens, UniProt P61073); assay: Boyden chamber migration assay of C56C cells; type: cell-based
T1 construct: endogenous in cells; host or cells: C56C cells (CXCR4+ CD56+), differentiated from MMCs derived from human pluripotent stem cells
Method: FIG. 61. To investigate the mechanisms by which C56Cs migrate towards ischemic/damaged tissue we assayed these cells in a Boyden chamber assay. 300,000 C56C cells were seeded in the upper chamber of a Boyden chamber.
To investigate the mechanisms by which C56Cs migrate towards ischemic/damaged tissue we assayed these cells in a Boyden chamber assay. 300,000 C56C cells were seeded in the upper chamber of a Boyden chamber.

[3] = system: hESC-derived Wt1+ PE cells (EPCs); assay: Stage 3 differentiation of Wt1+ EPC/PE cells to smooth muscle and endothelial cells, immunostaining; type: cell-based, human; settings: VEGF 10 ng/ml, 10 days
Method: WA01, WA07, WA09, BG01 and BG02 hESCs and Fib-iPS4 hIPSCs^28 were adapted from mouse embryo fibroblast feeder-based culture conditions to feeder-free growth in chemically defined media (CDM) using single cell suspensions^50. Briefly, CDM is composed of DMEM/F12 (Mediatech), 2% probumin (Bovine Serum Albumin fraction V) biotech grade (Millipore), 1× nonessential amino acids, 50 U/mL penicillin, 50 μg/mL streptomycin, 1× trace elements A, B, C (all from Mediatech), 10 μg/mL transferrin, 0.1 mM 3-mercaptoethanol (Gibco), 50 μg/mL ascorbic acid (Sigma), 8 ng/mL bFGF (Invitrogen), 200 ng/mL LR-IGF (Sigma), 10 ng/mL Activin A (R and D Systems) and 10 ng/mL Heregulin 13 (Peprotech). Cells were passaged every 4-5 d using Accutase (Innovative Cell Technologies) to form a single cell suspension and then plated onto plates coated with 1:200 Geltrex (Invitrogen) at a cell density of 7.5×10^4 cells/cm^2 at 37° C. in 5% CO2. Media was changed every 24 h. To differentiate hESC in Stage 1 (FIG. 62), cells were plated at a density of 5.1×10^4 cells/cm^2 into CDM containing 25 ng/mL rmWnt3a and 100 ng/mL rhBMP4 (R&D Systems). Cells were cultured at 37° C. in 5% CO2 and media changed every 24 h for 4-6 d. CDM for Stage 2 of differentiation was supplemented with 25 ng/mL rmWnt3a, 50 ng/mL rhBMP4 with either 100 ng/ml Fgf2 or 4 μM all-trans retinoic acid (Sigma), changing media every 48 h for 10-16 d. […]

[4] = system: WA09 hESCs; assay: Stage 1 differentiation of WA09 hESCs to Isl1+ splanchnic mesoderm; Q-PCR, immunostaining, flow cytometry; type: cell-based, human; settings: for differentiation / gene expression changes with single factor alone: data not shown
Method: as §1, with “To differentiate hESC in Stage 1 (FIG. 62), cells were plated at a density of 5.1×10^4 cells/cm^2 into CDM containing 25 ng/mL rmWnt3a and 100 ng/mL rhBMP4 (R&D Systems).” left out
Cells were collected as single cell suspensions following harvesting with Accutase and then analyzed using a Cyan flow cytometer (Dako). Cells were blocked with species-specific serum for 30 min followed by blocking with CD16/32 (eBiosciences) for a further 15 min then, with specific antibodies shown in FIG. 81, Table 4. Immunofluorescence was performed on 4% paraformaldehyde-fixed cells in the presence of 10% donkey serum and 0.25% Triton X100 followed by visualization using 2.5% donkey serum in PBS with fluorescent conjugated secondary antibodies. DAPI (Sigma) was used to counterstain nuclei. […]

CC1=C(/C=C/C(C)=C/C=C/C(C)=C/C(=O)O)C(C)(C)CCC1 [RA, All-trans retinoic acid, reference compound]
treated cells expressing Wt1, Raldh2 and Tbx20 ([1]; RA 4 μM with Wnt3a and BMP4, immunofluorescence): More than 90%
Erk activation in Isl1+ Spl-m [1]: activated Erk

c1cc(CN2CCCNCCNCCCNCC2)ccc1CN1CCCNCCNCCCNCC1 [AMD3100]
migration of C56C cells towards SDF1 ([2]; antagonist added): blocked

SDF1: SDF1 cytokine
migration of C56C cells towards cytokine in lower chamber ([2]; 300,000 C56C cells in upper chamber): responsive and migrate towards

VEGF
cells positive for CD31 and VE-cadherin (endothelial cells) [3]: 10-20%
cells positive for SMA and calponin (smooth muscle cells) [3]: 80-90%

Fgf2: fibroblast growth factor 2
transcripts expressed in PE/epicardium (Wt1, Raldh2, Tbx18, Tbx5) ([1]; Fgf2 100 ng/ml after 4 days of Wnt/BMP): dramatic increases
Erk activation in Isl1+ Spl-m [1]: activated Erk

B1: BMP4: bone morphogenic protein 4 (protein, UniProt P12644 293-408, looked up)
Bone morphogenetic protein 4: SPKHHSQRARKKNKNCRRHSLYVDFSDVGWNDWIVAPPGYQAFYCHGDCPFPLADHLNSTNHAIVQTLVNSVNSSIPKACCVPTELSAISMLYLDEYDKVVLKNYQEMVVEGCGCR
differentiation / gene expression changes with single factor alone [4]: promoted differentiation

B2: Wnt3a: wingless (Wnt) protein (protein, UniProt P56704 19-352, looked up)
Protein Wnt-3a: SYPIWWSLAVGPQYSSLGSQPILCASIPGLVPKQLRFCRNYVEIMPSVAEGIKIGIQECQHQFRGRRWNCTTVHDSLAIFGPVLDKATRESAFVHAIASAGVAFAVTRSCAEGTAAICGCSSRHQGSPGKGWKWGGCSEDIEFGGMVSREFADARENRPDARSAMNRHNNEAGRQAIASHMHLKCKCHGLSGSCEVKTCWWSQPDFRAIGDFLKDKYDSASEMVVEKHRESRGWVETLRPRYTYFKVPTERDLVYYEASPNFCEPNPETGSFGTRDRTCNVSSHGIDGCDLLCCGRGHNARAERRREKCRCVFHWCCYVSCQECTRVYDVHTCK
differentiation / gene expression changes with single factor alone [4]: None of the gene expression changes

B3: Dkk1: Wnt antagonist Dkk1 (protein, UniProt O94907 32-266, looked up)
Dickkopf-related protein 1: TLNSVLNSNAIKNLPPPLGGAAGHPGSAVSAAPGILYPGGNKYQTIDNYQPYPCAEDEECGTDEYCASPTRGGDAGVQICLACRKRRKRCMRHAMCCPGNYCKNGICVSSDQNHFRGEIEETITESFGNDHSTLDGYSRRTTLSSKMYHTKGQEGSVCLRSSDCASGLCCARHFWSKICKPVLKEGQVCTKHRRKGSHGLEIFQRCYCGEGLSCRIQKDHHQASNSSRLHTCQRH
BMP4-dependent differentiation of hESCs without exogenous Wnt3a ([4]; Dkk1 150 ng/ml with BMP4 50 ng/ml): blocked
